From ChEMBL document CHEMBL1201862, “PubChem BioAssay data set” (2004)
The source made the active and inactive calls.

Tests used:
[1] = biological target: Sphingosine 1-phosphate receptor 2 (Homo sapiens, UniProt O95136); experiment: Late stage counterscreen assay for S1P4 antagonists: Fluorescence dose response cell-based screening assay for antagonists of the Sphingosine 1-Phosphate Receptor 2 (S1P2). [Related pubchem assays (depositor defined):AID1510, AID1524, AID1692, AID1853, AID2332, AID489009, AID489017]; format: functional
Chain of Sphingosine 1-phosphate receptor 2 (O95136 whole entry): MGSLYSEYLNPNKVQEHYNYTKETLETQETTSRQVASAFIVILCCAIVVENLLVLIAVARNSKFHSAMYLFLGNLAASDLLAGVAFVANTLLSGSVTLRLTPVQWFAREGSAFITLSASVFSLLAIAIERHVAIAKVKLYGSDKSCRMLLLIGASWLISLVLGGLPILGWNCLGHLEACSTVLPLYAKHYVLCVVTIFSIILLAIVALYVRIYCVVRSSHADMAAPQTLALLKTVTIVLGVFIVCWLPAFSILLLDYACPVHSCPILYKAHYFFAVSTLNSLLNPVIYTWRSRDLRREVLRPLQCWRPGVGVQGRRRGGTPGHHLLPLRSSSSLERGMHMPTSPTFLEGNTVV

[2] = Late-stage results from the probe development effort to identify antagonists of the Sphingosine 1-Phosphate Receptor 4 (S1P4): luminescence-based cell-based dose response assay to determine cytotoxicity of antagonist compounds. [Related pubchem assays (depositor defined):AID1510, AID1524, AID1564, AID1692, AID1821, AID1853, AID2332, AID2346, AID2349, AID2350, AID2351, AID2354]; format: functional
[3] = biological target: Sphingosine 1-phosphate receptor 3 (Homo sapiens, UniProt Q99500); experiment: Late stage counterscreen assay for S1P4 antagonists: Fluorescence dose response cell-based screening assay for antagonists of the Sphingosine 1-Phosphate Receptor 3 (S1P3). [Related pubchem assays (depositor defined):AID1510, AID1524, AID1692, AID1853, AID2332, AID489009, AID489017]; format: functional
[4] = biological target: Sphingosine 1-phosphate receptor 1 (Homo sapiens, UniProt P21453); experiment: Late stage counterscreen assay for S1P4 antagonists: Fluorescence dose response cell-based screening assay for antagonists of the Sphingosine 1-Phosphate Receptor 1 (S1P1). [Related pubchem assays (depositor defined):AID1510, AID1524, AID1692, AID1853, AID2332, AID489009, AID489017]; format: functional
Chain of Sphingosine 1-phosphate receptor 1 (P21453 whole entry): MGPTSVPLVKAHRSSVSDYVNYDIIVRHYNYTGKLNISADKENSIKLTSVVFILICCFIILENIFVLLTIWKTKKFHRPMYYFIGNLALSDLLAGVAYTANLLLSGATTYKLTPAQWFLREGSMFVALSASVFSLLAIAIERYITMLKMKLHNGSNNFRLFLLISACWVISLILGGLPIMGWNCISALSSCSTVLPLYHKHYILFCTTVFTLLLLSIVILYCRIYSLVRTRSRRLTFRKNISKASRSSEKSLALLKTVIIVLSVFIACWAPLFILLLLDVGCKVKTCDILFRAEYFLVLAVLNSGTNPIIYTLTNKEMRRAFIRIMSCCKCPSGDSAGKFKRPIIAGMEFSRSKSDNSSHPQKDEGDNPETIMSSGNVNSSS

[5] = biological target: Sphingosine 1-phosphate receptor 5 (Homo sapiens, UniProt Q9H228); experiment: Late stage counterscreen assay for S1P4 antagonists: Fluorescence dose response cell-based screening assay for antagonists of the Sphingosine 1-Phosphate Receptor 5 (S1P5). [Related pubchem assays (depositor defined):AID1510, AID1524, AID1692, AID1853, AID2332, AID489009, AID489017]; format: functional
Chain of Sphingosine 1-phosphate receptor 5 (Q9H228 whole entry): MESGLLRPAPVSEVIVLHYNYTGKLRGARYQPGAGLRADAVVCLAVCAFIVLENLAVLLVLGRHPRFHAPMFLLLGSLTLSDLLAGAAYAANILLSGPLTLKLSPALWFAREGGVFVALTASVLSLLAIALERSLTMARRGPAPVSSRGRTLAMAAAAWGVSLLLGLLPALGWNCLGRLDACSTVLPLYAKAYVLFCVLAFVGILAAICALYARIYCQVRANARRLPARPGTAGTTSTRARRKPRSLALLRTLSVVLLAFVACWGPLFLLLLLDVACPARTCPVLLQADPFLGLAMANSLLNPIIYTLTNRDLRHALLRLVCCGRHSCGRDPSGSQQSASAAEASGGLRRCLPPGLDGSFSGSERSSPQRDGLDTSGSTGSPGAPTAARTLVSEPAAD

Galanin receptor type 3 = biological target: T1, Galanin receptor type 3 (Homo sapiens, UniProt O60755); experiment: Fluorescence-based cell-based primary high throughput dose response assay to identify antagonists of the Galanin Receptor 3 (GalR3).; format: functional
T1 sequence (O60755 whole entry): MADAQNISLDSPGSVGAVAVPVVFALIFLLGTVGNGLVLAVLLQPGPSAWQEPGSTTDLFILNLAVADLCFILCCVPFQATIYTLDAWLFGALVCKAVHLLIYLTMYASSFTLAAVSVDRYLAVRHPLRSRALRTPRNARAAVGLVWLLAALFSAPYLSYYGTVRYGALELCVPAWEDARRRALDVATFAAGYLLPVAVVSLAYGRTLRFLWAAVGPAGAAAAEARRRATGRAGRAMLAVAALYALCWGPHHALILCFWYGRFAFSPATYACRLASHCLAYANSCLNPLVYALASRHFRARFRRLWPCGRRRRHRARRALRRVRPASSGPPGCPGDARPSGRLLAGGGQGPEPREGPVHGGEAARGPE

[6] = cytotoxicity toward NIH3T3 fibroblasts, dose response, counter-screen, cell-based, ATP luminescence, mouse fibroblasts (AID 2010); format: functional;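 note: cells exposed to compound for about 90 hours before reading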
cells = format: functional, cell-based; conditions: HEK-CNG
[7] = biological target: T2, Tyrosine-protein phosphatase non-receptor type 22 (Homo sapiens, UniProt Q9Y2R2); format: functional
T2 sequence (Q9Y2R2 whole entry): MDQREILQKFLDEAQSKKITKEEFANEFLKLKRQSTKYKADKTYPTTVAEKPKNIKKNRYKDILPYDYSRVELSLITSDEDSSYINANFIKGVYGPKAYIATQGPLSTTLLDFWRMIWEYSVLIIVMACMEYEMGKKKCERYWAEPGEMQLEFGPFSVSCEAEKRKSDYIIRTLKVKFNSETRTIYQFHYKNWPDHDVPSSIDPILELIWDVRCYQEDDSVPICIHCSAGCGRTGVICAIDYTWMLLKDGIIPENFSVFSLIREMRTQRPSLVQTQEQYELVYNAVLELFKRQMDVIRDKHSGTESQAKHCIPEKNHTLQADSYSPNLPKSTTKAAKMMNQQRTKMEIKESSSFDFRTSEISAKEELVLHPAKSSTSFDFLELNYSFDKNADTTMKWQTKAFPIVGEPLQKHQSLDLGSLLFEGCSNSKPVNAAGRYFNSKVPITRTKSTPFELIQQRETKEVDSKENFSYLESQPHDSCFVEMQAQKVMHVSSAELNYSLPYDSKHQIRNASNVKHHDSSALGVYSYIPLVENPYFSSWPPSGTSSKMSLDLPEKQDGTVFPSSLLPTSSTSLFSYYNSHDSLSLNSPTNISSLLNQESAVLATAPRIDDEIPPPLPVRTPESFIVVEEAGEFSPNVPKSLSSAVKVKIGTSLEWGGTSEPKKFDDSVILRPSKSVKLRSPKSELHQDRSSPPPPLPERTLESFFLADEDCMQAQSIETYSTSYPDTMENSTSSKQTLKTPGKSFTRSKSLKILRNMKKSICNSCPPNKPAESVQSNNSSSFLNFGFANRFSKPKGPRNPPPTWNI

[8] = biological target: T3, Tyrosine-protein phosphatase non-receptor type 7 (Homo sapiens, UniProt P35236); format: functional
T3 sequence (P35236 whole entry): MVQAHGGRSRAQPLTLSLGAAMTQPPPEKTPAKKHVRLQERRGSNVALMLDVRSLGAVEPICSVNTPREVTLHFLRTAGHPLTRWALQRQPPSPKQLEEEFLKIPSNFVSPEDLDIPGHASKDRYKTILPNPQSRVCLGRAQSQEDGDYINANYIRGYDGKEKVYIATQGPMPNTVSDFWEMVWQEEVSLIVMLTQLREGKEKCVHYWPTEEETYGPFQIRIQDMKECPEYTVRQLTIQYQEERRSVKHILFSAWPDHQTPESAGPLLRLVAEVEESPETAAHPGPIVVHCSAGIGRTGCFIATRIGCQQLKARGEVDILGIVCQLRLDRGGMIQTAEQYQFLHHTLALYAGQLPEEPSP

[9] = biological target: T2, Tyrosine-protein phosphatase non-receptor type 22; format: functional; remark: listed apart in the source
[10] = inhibitors of intracellular T. cruzi replication, confirmation, NIH3T3 host cells, beta-gal luminescence (AID 2044); format: functional, cell-based;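 note: intracellular parasites grown in NIH/3T3 mouse fibroblasts as host cells; luminescent beta-galactosidase reporter signal from transgenic T. cruzi replicating inside host cells; inhibitors lower the luminescence signal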
[11] = biological target: T4, Delta-type opioid receptor (Homo sapiens, UniProt P41143); experiment: HTS Image-Based Screen for Agonists of the DOR Receptor. [Related pubchem assays (depositor defined):AID1777, AID1786, AID2133]; format: functional
T4 sequence (P41143 whole entry): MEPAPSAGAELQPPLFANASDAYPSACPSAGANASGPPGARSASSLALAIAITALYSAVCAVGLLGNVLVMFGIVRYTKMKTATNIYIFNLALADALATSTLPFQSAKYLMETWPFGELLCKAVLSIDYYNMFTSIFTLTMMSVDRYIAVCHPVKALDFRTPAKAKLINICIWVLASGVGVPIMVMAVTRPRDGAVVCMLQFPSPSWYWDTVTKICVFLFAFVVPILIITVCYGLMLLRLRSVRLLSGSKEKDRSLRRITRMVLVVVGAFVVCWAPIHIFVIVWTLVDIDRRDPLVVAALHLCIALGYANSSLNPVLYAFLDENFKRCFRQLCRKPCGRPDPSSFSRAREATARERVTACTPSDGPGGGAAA

Ion channel NompC = Ion channel NompC (Danio rerio, UniProt Q7T1G6); experiment: Fluorescence counterscreen assay for TRPML3 agonists: dose response cell-based high-throughput screening assay to identify agonists of the transient receptor potential channel N1 (TRPN1). [Related pubchem assays: 1526, 1424, 1448 ]; format: functional
Mucolipin-3 = biological target: T5, Mucolipin-3 (Homo sapiens, UniProt Q8TDD5); experiment: Dose response cell-based high-throughput screening assay for agonists of the transient receptor potential channel ML3 (TRPML3). [Related pubchem assays: 1526, 1424, 1448 ]; format: functional
T5 sequence (Q8TDD5 whole entry): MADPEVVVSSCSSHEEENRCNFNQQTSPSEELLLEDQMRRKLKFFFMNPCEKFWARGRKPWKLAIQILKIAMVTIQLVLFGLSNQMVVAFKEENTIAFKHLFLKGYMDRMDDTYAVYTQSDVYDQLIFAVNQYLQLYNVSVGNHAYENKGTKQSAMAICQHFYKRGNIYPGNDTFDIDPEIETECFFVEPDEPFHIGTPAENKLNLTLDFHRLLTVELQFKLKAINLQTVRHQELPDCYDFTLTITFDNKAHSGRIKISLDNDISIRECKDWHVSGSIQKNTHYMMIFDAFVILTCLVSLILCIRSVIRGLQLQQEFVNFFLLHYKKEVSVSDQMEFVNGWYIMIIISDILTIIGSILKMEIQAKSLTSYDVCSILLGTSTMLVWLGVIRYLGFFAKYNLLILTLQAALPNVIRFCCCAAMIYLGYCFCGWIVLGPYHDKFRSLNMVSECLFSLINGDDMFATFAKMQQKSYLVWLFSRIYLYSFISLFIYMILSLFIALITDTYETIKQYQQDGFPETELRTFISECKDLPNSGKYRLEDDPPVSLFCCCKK

[12] = Shn3 3'UTR reporter inhibitors, dose response, cell-based, Clone20 osteoblasts, firefly luciferase, cherry-picked (AID 624132); format: functional;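 note: firefly luciferase luminescence from reporter carrying the Shn3 3'UTR in osteoblasts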
[13] = biological target: T6, Kappa-type opioid receptor (Homo sapiens, UniProt P41145); format: functional
T6 sequence (P41145 whole entry): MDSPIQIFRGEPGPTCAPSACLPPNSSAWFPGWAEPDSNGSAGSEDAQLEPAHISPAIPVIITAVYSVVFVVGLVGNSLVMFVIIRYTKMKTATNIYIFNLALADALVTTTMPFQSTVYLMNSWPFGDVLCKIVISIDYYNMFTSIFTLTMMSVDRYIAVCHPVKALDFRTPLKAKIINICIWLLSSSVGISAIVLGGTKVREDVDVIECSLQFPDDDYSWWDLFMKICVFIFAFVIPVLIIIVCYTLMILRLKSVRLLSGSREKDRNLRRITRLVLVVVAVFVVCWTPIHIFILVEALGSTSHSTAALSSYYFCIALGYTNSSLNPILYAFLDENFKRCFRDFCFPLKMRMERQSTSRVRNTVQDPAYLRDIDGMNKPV

[14] = biological target: T6, Kappa-type opioid receptor; format: functional; remark: listed apart in the source
Mu-type opioid receptor = Mu-type opioid receptor (Homo sapiens, UniProt P35372); experiment: HTS Image-Based Screen for Agonists of the MOR Receptor. [Related pubchem assays (depositor defined):AID1777, AID1785, AID1786, AID2133]; format: functional;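 note: imaging of beta-arrestin GFP recruitment into spots after receptor activation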
Chain of Mu-type opioid receptor (P35372 whole entry): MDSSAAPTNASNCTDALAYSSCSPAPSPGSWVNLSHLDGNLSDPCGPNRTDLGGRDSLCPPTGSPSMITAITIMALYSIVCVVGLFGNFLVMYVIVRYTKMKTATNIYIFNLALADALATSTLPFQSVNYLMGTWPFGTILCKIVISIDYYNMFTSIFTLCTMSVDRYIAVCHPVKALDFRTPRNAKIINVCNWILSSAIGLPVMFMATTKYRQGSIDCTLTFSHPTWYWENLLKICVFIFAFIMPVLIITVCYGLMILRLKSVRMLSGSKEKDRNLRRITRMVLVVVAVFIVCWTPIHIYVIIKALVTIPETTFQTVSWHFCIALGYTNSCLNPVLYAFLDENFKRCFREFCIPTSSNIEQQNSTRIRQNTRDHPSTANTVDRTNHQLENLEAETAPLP

[15] = HepG2 cell cytotoxicity, dose response, cytotoxicity control for Shn3 inhibitor project, CellTiter-Glo, cherry-picked (AID 624134); format: functional, cell-based
[16] = control 3'UTR Renilla luciferase suppression, dose response, counter-screen for Shn3 inhibitor project, cell-based, Clone20-Shn3RL, cherry-picked (AID 624133); format: functional
[17] = biological target: T4, Delta-type opioid receptor; experiment: HTS Image-Based Screen for Antagonists of the DOR Receptor. [Related pubchem assays (depositor defined):AID1777, AID1785, AID1786, AID2133]; format: functional
SUMO E1/E2 = SUMO E1/E2 (Homo sapiens, UniProt P63279+Q9UBE0+Q9UBT2); experiment: SAR analysis of SUMOylation using HTRF in an in-Vitro dose response assay. [Related pubchem assays (depositor defined):AID2006, AID2011, AID2018, AID2069, AID2658]; format: functional
[18] = biological target: T7, Intestinal-type alkaline phosphatase (Homo sapiens, UniProt P09923); experiment: human IAP activators, dose response, biochemical, luminescent, uHTS hits, set 2 (AID 488817); format: functional;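 note: potency of activators that raise enzyme activity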
T7 sequence (P09923 whole entry): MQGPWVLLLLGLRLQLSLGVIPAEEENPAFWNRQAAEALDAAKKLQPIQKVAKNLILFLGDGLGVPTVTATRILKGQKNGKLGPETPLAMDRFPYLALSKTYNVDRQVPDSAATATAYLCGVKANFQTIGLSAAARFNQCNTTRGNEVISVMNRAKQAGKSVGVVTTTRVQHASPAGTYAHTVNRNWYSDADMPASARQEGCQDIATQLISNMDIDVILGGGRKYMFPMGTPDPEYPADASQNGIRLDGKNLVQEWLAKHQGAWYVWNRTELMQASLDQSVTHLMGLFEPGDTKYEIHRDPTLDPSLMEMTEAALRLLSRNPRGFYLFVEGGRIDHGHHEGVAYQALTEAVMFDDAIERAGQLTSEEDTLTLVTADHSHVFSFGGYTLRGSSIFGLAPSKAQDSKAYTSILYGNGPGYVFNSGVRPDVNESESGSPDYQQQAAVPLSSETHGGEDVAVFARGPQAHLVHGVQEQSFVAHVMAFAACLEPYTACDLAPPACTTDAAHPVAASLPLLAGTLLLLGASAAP

[19] = biological target: Intestinal-type alkaline phosphatase (Mus musculus, UniProt P24822); experiment: PubChem AID 488874; format: functional
HEK293 = experiment: cells; conditions: Homo sapiens;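 note: cells exposed to compound for 14 hours overnight before viability readout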
[20] = biological target: Nucleotide-binding oligomerization domain-containing protein 1 (Homo sapiens, UniProt Q9Y239); experiment: NOD1 signaling inhibitors, SAR follow-up, revised (AID 2333); format: functional
Chain of Nucleotide-binding oligomerization domain-containing protein 1 (Q9Y239 whole entry, the tested form may be a part): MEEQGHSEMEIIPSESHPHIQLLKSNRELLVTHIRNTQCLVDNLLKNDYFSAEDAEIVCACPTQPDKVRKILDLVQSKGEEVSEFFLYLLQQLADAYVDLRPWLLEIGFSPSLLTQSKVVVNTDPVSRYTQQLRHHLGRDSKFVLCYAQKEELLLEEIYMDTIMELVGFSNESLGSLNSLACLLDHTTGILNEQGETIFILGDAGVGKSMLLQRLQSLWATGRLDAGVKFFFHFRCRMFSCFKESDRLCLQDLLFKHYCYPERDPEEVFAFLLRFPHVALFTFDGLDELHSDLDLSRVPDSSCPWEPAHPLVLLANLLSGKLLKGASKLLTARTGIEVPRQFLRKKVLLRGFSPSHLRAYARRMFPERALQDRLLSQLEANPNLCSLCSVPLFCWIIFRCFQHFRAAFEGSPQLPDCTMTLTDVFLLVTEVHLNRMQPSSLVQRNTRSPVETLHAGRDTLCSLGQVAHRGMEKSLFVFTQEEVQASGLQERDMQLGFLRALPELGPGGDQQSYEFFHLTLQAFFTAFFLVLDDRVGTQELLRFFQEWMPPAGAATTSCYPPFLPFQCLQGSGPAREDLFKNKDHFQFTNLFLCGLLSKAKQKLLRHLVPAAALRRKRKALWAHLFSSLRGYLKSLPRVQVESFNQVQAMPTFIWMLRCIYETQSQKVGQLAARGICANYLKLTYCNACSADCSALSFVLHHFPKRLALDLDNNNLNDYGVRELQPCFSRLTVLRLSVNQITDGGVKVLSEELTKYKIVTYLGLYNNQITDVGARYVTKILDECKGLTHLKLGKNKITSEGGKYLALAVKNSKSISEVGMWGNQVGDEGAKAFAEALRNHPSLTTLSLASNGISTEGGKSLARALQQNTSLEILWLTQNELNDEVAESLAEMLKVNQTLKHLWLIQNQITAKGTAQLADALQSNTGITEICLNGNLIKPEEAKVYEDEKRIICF

[21] = biological target: Nucleotide-binding oligomerization domain-containing protein 2 (Homo sapiens, UniProt Q9HC29); experiment: PubChem AID 2334; format: functional
Chain of Nucleotide-binding oligomerization domain-containing protein 2 (Q9HC29 whole entry, the tested form may be a part): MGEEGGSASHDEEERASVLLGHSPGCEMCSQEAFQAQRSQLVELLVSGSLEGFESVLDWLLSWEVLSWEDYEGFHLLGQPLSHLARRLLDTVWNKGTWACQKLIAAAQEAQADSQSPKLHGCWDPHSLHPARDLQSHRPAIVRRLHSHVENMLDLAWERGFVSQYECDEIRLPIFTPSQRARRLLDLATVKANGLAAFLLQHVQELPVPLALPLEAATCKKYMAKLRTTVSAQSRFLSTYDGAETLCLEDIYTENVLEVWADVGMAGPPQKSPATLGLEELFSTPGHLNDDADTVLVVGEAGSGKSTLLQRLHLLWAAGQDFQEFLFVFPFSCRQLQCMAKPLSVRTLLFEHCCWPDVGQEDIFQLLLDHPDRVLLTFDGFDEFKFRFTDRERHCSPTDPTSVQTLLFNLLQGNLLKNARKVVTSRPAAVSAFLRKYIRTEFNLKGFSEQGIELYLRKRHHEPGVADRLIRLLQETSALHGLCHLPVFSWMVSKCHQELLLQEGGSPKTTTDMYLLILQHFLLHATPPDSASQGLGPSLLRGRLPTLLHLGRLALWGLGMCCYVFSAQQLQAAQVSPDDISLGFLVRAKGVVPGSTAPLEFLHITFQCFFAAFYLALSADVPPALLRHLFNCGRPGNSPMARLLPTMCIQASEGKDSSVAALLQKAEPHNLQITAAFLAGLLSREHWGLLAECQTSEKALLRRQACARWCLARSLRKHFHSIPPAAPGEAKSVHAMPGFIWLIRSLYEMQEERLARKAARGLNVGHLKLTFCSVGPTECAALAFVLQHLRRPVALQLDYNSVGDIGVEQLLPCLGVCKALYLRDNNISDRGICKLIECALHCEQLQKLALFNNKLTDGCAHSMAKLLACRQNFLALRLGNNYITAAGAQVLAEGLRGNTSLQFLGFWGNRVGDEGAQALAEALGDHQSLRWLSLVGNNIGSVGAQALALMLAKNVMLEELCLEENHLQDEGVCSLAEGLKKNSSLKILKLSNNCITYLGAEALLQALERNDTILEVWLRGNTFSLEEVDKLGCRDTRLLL

[22] = biological target: T7, Intestinal-type alkaline phosphatase; experiment: human intestinal alkaline phosphatase activators, dose response, biochemical, luminescence, uHTS hits (AID 463120); format: functional
[23] = biological target: T8, Alkaline phosphatase, tissue-nonspecific isozyme (Homo sapiens, UniProt P05186); experiment: TNAP enzyme activators, dose response, selectivity assay for human IAP activator project, biochemical, TNAP isozyme, human IAP uHTS hits (AID 488886); format: functional;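 note: potency of compounds raising TNAP activity as a selectivity check on IAP activators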
T8 sequence (P05186 whole entry): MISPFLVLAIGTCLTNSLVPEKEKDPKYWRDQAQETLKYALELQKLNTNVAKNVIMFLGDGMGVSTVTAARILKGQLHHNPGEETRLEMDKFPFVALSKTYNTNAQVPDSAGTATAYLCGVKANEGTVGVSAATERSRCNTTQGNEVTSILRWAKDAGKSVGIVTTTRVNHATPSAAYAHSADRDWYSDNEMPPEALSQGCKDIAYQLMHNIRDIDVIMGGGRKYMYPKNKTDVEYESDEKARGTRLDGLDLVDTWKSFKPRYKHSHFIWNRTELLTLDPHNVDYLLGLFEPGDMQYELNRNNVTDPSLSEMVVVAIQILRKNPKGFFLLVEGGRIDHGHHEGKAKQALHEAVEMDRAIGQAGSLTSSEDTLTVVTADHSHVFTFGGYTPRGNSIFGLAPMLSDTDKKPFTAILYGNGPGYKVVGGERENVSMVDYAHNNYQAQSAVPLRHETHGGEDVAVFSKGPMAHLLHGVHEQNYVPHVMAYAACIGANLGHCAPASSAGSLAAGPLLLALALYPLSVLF

Tumor necrosis factor = Tumor necrosis factor (Homo sapiens, UniProt P01375); experiment: TNFa-triggered NF-kB activation inhibitors, SAR follow-up, cell-based, revised (AID 2337); format: functional

SMILES: CCc1cccc(CC)c1NC(=O)c1ccc(-c2cc(Cl)ccc2Cl)o1
- IC50 [1]: > 25 µM (inactive)
- CC50 [2]: > 20 µM (inactive)
- IC50 [3]: > 25 µM (inactive)
- IC50 [4]: > 25 µM (inactive)
- IC50 [5]: > 25 µM (inactive)

SMILES: COC(=O)C1CCN(Cc2ccc(OCCCN3CCN(c4ccc([N+](=O)[O-])cc4)CC3)cc2)CC1
- IC50 (Galanin receptor type 3): 1.33 µM (active)
- EC50 [6]: > 30 µM (not active)
- EC50 (cells): > 29.9 µM (inactive)
- IC50 [7]: > 79.4 µM (inactive)
- IC50 [8]: > 79.4 µM (inactive)
- IC50 [9]: > 79.4 µM (inactive)
- EC50 [10]: 0.257 µM (active)

SMILES: COc1ccc(CCN2C(=O)CS/C2=N\c2ccc(C(C)C)cc2)cc1OC
- EC50 [11]: > 32 µM (inactive)
- EC50 (Ion channel NompC): > 29.9 µM (not active)
- EC50 (Mucolipin-3): > 29.9 µM (not active)
- AC50 [12]: 4.49 µM (active)
- EC50 [13]: 6.83 µM
- EC50 [14]: 5.88 µM
- EC50 (Mu-type opioid receptor): > 32 µM (inactive)
- AC50 [15]: 5.37 µM (active)
- AC50 [16]: 7.07 µM (active)
- IC50 [17]: > 32 µM (inactive)

SMILES: C/C(=N\OCc1nc2ccccc2c(=O)n1/N=C/c1ccc(Cl)cc1)c1ccccc1
- IC50 (SUMO E1/E2): > 100 µM (inactive)

SMILES: Cc1cc(Br)ccc1SCC(=O)OC/C(O)=C(\C#N)c1nc2ccccc2[nH]1
- EC50 [18]: 27.5 µM (active)
- IC50 [19]: > 100 µM (inactive)
- IC50 (HEK293): > 20 µM (inactive)
- IC50 [20]: > 20 µM (inactive)
- IC50 [21]: > 20 µM (inactive)
- EC50 [22]: 13.4 µM (active)
- EC50 [23]: 24.1 µM (active)
- IC50 (Tumor necrosis factor): > 20 µM (inactive)
